Values of other authors, collected in patent US6482908B1, “Template-directed ring-closing metathesis and ring-opening metathesis polymerization of functionalized dienes” (California Institute of Technology, priority 1997, dated 2002).

System: cell attachment and spreading

Gly-Arg-Gly-Asp-Tyr (GRGDY; printed: Gly-Arg-Gly-Asp-Tyr) [oligopeptide immobilized onto glass substrate, literature adhesion agent]
cell adhesion activity of immobilized peptide (immobilized onto a poorly adhesive glass substrate): extremely potent adhesion agent | minimum surface density necessary to induce normal cell attachment and spreading (peptide immobilized onto poorly adhesive glass substrate, ~140 nm between peptides): 10 fmol/cm^2
